Source: ChEMBL document CHEMBL1201862, “PubChem BioAssay data set” (2004)
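Tested at 5 concentrations; 48 h exposure; 96-well plates; endpoints linearly interpolated, else capped at highest concentration. GI50 marks 50% less growth.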 Active and inactive are the calls of the source. Rule as the data show it: active = GI50 up to about 1.1 µM and inactive = higher. *1 amine or outer side, *2 acyl side, *3 side chain or, on linkers, in order; H or OH if unused. Where a SMILES comes first, the peptide text is derived from it. Bridges are numbered along the chain shown (N, C = ends). Roman numbers before positions name the chains, in order. [ ]: non-standard residue; d: D form. Actinocin(9to1) = Cc1c2oc3c(C)ccc(C(=O)[*:1])c3nc-2c(C(=O)[*:2])c(N)c1=O; NMeV = CN[CH](C(=O)O)C(C)C; Sar = CNCC(=O)O

Columns and labels:
Test in all cases: growth of human tumour cells (NCI), 48 h
[1] = tested on: SK-MEL-5
[2] = tested on: U-251
[3] = tested on: UACC-257
[4] = tested on: HCC 2998
[5] = tested on: MDA-MB-231
[6] = tested on: TK-10
[7] = tested on: SF-539
[8] = tested on: BT-549
[9] = tested on: RXF 393
[10] = tested on: Hs-578T
[11] = tested on: RPMI-8226
[12] = tested on: CCRF-CEM
[13] = tested on: NCI-H23
[14] = tested on: CAKI-1
[15] = tested on: COLO 205
[16] = tested on: NCI-H226
[17] = tested on: K562
[18] = tested on: MOLT-4
[19] = tested on: HCT-116
[20] = tested on: SK-OV-3

CCOC(C/N=c1/nc(N(C)C)ss1)OCC
GI50 [1]: 0.832 µM (active) | GI50 [2]: 16 µM (inactive) | GI50 [3]: 26.4 µM (inactive) | GI50 [4]: > 77.4 µM (inactive) | GI50 [5]: 15.5 µM (inactive) | GI50 [6]: 33.3 µM (inactive) | GI50 [7]: 17.4 µM (inactive) | GI50 [8]: 23.4 µM (inactive) | GI50 [9]: 19 µM (inactive) | GI50 [10]: > 54.8 µM (inactive) | GI50 [11]: 1.16 µM (inactive) | GI50 [12]: 0.208 µM (active) | GI50 [13]: 33.5 µM (inactive) | GI50 [14]: 22.6 µM (inactive) | GI50 [15]: 0.986 µM (active) | GI50 [16]: 24.6 µM (inactive) | GI50 [17]: 0.354 µM (active) | GI50 [18]: 0.593 µM (active) | GI50 [19]: 14.9 µM (inactive) | GI50 [20]: > 100 µM (inactive)

CN(C)CCCNc1c(C#N)[n+]([O-])c2cc(Cl)ccc2[n+]1[O-]
GI50 [1]: 5.02 µM (inactive) | GI50 [2]: 15.2 µM (inactive) | GI50 [3]: 17.7 µM (inactive) | GI50 [4]: 5.53 µM (inactive) | GI50 [5]: 10.4 µM (inactive) | GI50 [6]: 6.4 µM (inactive) | GI50 [7]: 14.1 µM (inactive) | GI50 [8]: 6.79 µM (inactive) | GI50 [9]: 21.2 µM (inactive) | GI50 [10]: 31.6 µM (inactive) | GI50 [11]: 3.27 µM (inactive) | GI50 [12]: 3.21 µM (inactive) | GI50 [13]: 7.74 µM (inactive) | GI50 [14]: 7.91 µM (inactive) | GI50 [15]: 4.84 µM (inactive) | GI50 [16]: 12.4 µM (inactive) | GI50 [17]: 3.92 µM (inactive) | GI50 [18]: 1.18 µM (inactive) | GI50 [19]: 7.18 µM (inactive) | GI50 [20]: 18.3 µM (inactive)

Cc1c2oc3c(C)ccc(C(=O)NC4C(=O)NC(C(C)C)C(=O)N5CCCC5C(=O)N(C)CC(=O)N(C)C(C(C)C)C(=O)OC4C)c3nc-2c(C(=O)NC2C(=O)NC(C(C)C)C(=O)N3CCCC3C(=O)N(C)CC(=O)N(C)C(C(C)C)C(=O)OC2C)c(N)c1=O (stereo not given) (I: TVP[Sar][NMeV] / II: TVP[Sar][NMeV]; ester I:1-I:C, II:1-II:C; linker I:N-II:N via Actinocin(9to1); configuration not given here)
GI50 [1]: 0.000351 µM (active) | GI50 [2]: < 0.0001 µM (active) | GI50 [3]: 0.000957 µM (active) | GI50 [4]: 0.00684 µM (active) | GI50 [5]: 0.00494 µM (active) | GI50 [6]: 0.0101 µM (active) | GI50 [7]: < 0.0001 µM (active) | GI50 [8]: 0.0025 µM (active) | GI50 [9]: 0.00136 µM (active) | GI50 [10]: 0.000143 µM (active) | GI50 [11]: 0.00104 µM (active) | GI50 [12]: < 0.0001 µM (active) | GI50 [13]: 0.000556 µM (active) | GI50 [14]: 0.00224 µM (active) | GI50 [15]: 0.000161 µM (active) | GI50 [16]: 0.000891 µM (active) | GI50 [17]: < 0.0001 µM (active) | GI50 [18]: < 0.0001 µM (active) | GI50 [19]: < 0.0001 µM (active) | GI50 [20]: 0.0017 µM (active)
